Here are results for 18 compounds from patent US9499466B2, “Diene-based carboxylate anion and salt thereof, and polymerizable or curable composition thereof” (NIPPON SHOKUBAI CO., LTD., priority 2010, dated 2016).

Data set [1] is described as follows: Solubility test (film-forming method). Conditions: for Solubility (film-forming method) Water: solvent dropped on film on glass plate. On the procedure:
Each compound was applied on a glass plate and the glass plate was leaned against the wall. Each solvent shown in Table 5 was dropped (5 to 6 drops) on the glass plate with a pasteur pipette. The glass plate was visually observed after the dropped solvent was dried, the surface was optionally rubbed with a spatula, and the solubility (film-forming method) was evaluated according to the criteria shown in Table 4.

A short description of data set [2]: Solubility test (dissolution method). As to conditions: for Solubility (dissolution method) Water: mixed at 1%, 3%, 5%, 10%, 20% or more. The text has this: The solubility evaluation by the dissolution method requires complicated operations and a large amount of test sample. Therefore, this test is not suitable for screening. However, the solubility of each compound can be more accurately evaluated.

Turning to `C=CCOCC(=C)C(=O)[O-].C=CCOCC(=C)C(=O)[O-].C=CCOCC(=C)C(=O)[O-].[Cr+3]` [Cr(AMA)3], the “Solubility (film-forming method) Methanol” value in data set [1] is listed as “X-Δ”. In addition, the “Solubility (dissolution method) Toluene” value in data set [2] was “◯◯ (Become uniform and transparent at a compound concentration of 20% or more)”.
For the compound `C=CCOCC(=C)C(=O)[O-].C=CCOCC(=C)C(=O)[O-].[Co+2]` [Co(AMA)2], in data set [1], the “Solubility (film-forming method) Acetonitrile” value is “X-Δ” and the “Solubility (film-forming method) Methanol” value was “X-Δ”. Also, the “Solubility (dissolution method) Toluene” value in data set [2] is “◯◯ (Become uniform and transparent at a compound concentration of 20% or more)”.
Take `C=CCOCC(=C)C(=O)[O-].C=CCOCC(=C)C(=O)[O-].C=CCOCC(=C)C(=O)[O-].[Er+3]` [Er(AMA)3]: the “Solubility (film-forming method) Water” value in data set [1] was “X-Δ”. Also, in data set [2], the “Solubility (dissolution method) THF” value was “◯◯ (Become uniform and transparent at a compound concentration of 20% or more)”; the “Solubility (dissolution method) Toluene” value was “◯ (Become uniform and transparent at a compound concentration of 10%)”.
In the case of `C=CCOCC(=C)C(=O)[O-].C=CCOCC(=C)C(=O)[O-].CC(C)[O][Ti+2][O]C(C)C` [(i-C3H7O)2Ti(AMA)2], in data set [1], the “Solubility (film-forming method) Acetone” value is given as “X-Δ”, the “Solubility (film-forming method) Acetonitrile” value was “X-Δ”, the “Solubility (film-forming method) Ethyl acetate” value was “X-Δ” and the “Solubility (film-forming method) Methanol” value was “X-Δ”. Further, in data set [1], the “Solubility (film-forming method) THF” value is reported as “X-Δ” and the “Solubility (film-forming method) Toluene” value is on record as “X-Δ”. Besides, in data set [2], the “Solubility (dissolution method) Acetone” value was “◯◯ (Become uniform and transparent at a compound concentration of 20% or more)”; the “Solubility (dissolution method) Acetonitrile” value is “◯◯ (Become uniform and transparent at a compound concentration of 20% or more)”; the “Solubility (dissolution method) Ethyl acetate” value was “◯◯ (Become uniform and transparent at a compound concentration of 20% or more)”; the “Solubility (dissolution method) Methanol” value is “◯◯ (Become uniform and transparent at a compound concentration of 20% or more)”. Moreover, in data set [2], the “Solubility (dissolution method) THF” value was “◯◯ (Become uniform and transparent at a compound concentration of 20% or more)”; the “Solubility (dissolution method) Toluene” value is “◯◯ (Become uniform and transparent at a compound concentration of 20% or more)”; the “Solubility (dissolution method) Water” value was “X (Not become uniform and transparent even at a compound concentration of 1%)”.
Consider `C=CCOCC(=C)C(=O)[O-].C=CCOCC(=C)C(=O)[O-].C=CCOCC(=C)C(=O)[O-].[Au+3]` [Au(AMA)3], for which, in data set [1], the “Solubility (film-forming method) Toluene” value is “X-Δ”.
Regarding `C=CCOCC(=C)C(=O)[O-].C=CCOCC(=C)C(=O)[O-].C=CCOCC(=C)C(=O)[O-].[La+3]` [La(AMA)3], the “Solubility (film-forming method) Water” value in data set [1] is “X-Δ”. In data set [2], the “Solubility (dissolution method) THF” value was “◯◯ (Become uniform and transparent at a compound concentration of 20% or more)”; the “Solubility (dissolution method) Toluene” value was “◯ (Become uniform and transparent at a compound concentration of 10%)”.
As to `C=CCOCC(=C)C(=O)[O-].C=CCOCC(=C)C(=O)[O-].[Cu+2]` [Cu(AMA)2], the “Solubility (dissolution method) THF” value in data set [2] is “◯◯ (Become uniform and transparent at a compound concentration of 20% or more)”.
As to `C=CCOCC(=C)C(=O)[O-].C=CCOCC(=C)C(=O)[O-].C=CCOCC(=C)C(=O)[O-].[Fe+3]` [Fe(AMA)3], the “Solubility (film-forming method) Water” value in data set [1] is “X-Δ”. For the same compound, the “Solubility (dissolution method) Toluene” value in data set [2] was “◯◯ (Become uniform and transparent at a compound concentration of 20% or more)”.
Consider `C=CCOCC(=C)C(=O)[O-].C=CCOCC(=C)C(=O)[O-].CCC[O][Zr+2][O]CCC` [(n-C3H7O)2Zr(AMA)2], for which, in data set [1], the “Solubility (film-forming method) Acetone” value is “X-Δ”, the “Solubility (film-forming method) Acetonitrile” value was “X-Δ”, the “Solubility (film-forming method) Ethyl acetate” value is listed as “X-Δ” and the “Solubility (film-forming method) Methanol” value is “X-Δ”. Moreover, in data set [1], the “Solubility (film-forming method) THF” value is “X-Δ” and the “Solubility (film-forming method) Toluene” value is recorded as “X-Δ”. Moreover, in data set [2], the “Solubility (dissolution method) Acetone” value is “◯◯ (Become uniform and transparent at a compound concentration of 20% or more)”; the “Solubility (dissolution method) Acetonitrile” value was “X (Not become uniform and transparent even at a compound concentration of 1%)”; the “Solubility (dissolution method) Ethyl acetate” value was “◯ (Become uniform and transparent at a compound concentration of 10%)”; the “Solubility (dissolution method) Methanol” value was “X (Not become uniform and transparent even at a compound concentration of 1%)”. In data set [2], the “Solubility (dissolution method) THF” value is “◯◯ (Become uniform and transparent at a compound concentration of 20% or more)”; the “Solubility (dissolution method) Toluene” value was “◯◯ (Become uniform and transparent at a compound concentration of 20% or more)”; the “Solubility (dissolution method) Water” value is “X (Not become uniform and transparent even at a compound concentration of 1%)”.
Regarding `C=C(C)COCC(=C)C(=O)[O-].C=C(C)COCC(=C)C(=O)[O-].[Zn+2]` [Zn(MAMA)2], the “Solubility (film-forming method) Water” value in data set [1] is “X-Δ”. The “Solubility (dissolution method) Toluene” value in data set [2] was “◯◯ (Become uniform and transparent at a compound concentration of 20% or more)”.
Consider `C=CCOCC(=C)C(=O)[O-].C=CCOCC(=C)C(=O)[O-].[CH3][Sn+2][CH3]` [(CH3)2Sn(AMA)2], for which, in data set [2], the “Solubility (dissolution method) Toluene” value was “◯◯ (Become uniform and transparent at a compound concentration of 20% or more)”.
The same measure, in the same setting: for `C=C(C)C(=O)[O-].C=CCOCC(=C)C(=O)[O-].[Ni+2]` [Ni(AMA)1(MAA)1] the value was “◯◯ (Become uniform and transparent at a compound concentration of 20% or more)”.
`C=CCOCC(=C)C(=O)[O-].C=CCOCC(=C)C(=O)[O-].C=CCOCC(=C)C(=O)[O-].[Bi+3]` [Bi(AMA)3]: the “Solubility (film-forming method) Water” value in data set [1] is “X-Δ”.
Turning to `C=CCOCC(=C)C(=O)[O-].C=CCOCC(=C)C(=O)[O-].[Mn+2]` [Mn(AMA)2], the “Solubility (film-forming method) Water” value in data set [1] is listed as “X-Δ”. In data set [2], the “Solubility (dissolution method) Toluene” value is “◯◯ (Become uniform and transparent at a compound concentration of 20% or more)”.
In the case of `C=CCOCC(=C)C(=O)[O-].C=CCOCC(=C)C(=O)[O-].C=CCOCC(=C)C(=O)[O-].[In+3]` [In(AMA)3], in data set [1], the “Solubility (film-forming method) Acetone” value is reported as “X-Δ”, the “Solubility (film-forming method) Acetonitrile” value is “X-Δ”, the “Solubility (film-forming method) Ethyl acetate” value is reported as “X-Δ” and the “Solubility (film-forming method) Methanol” value is reported as “X-Δ”. Moreover, the “Solubility (dissolution method) THF” value in data set [2] was “◯◯ (Become uniform and transparent at a compound concentration of 20% or more)”.
Regarding `C=C(C)C(=O)[O-].C=CCOCC(=C)C(=O)[O-].C=CCOCC(=C)C(=O)[O-].[In+3]` [In(AMA)2(MAA)1], the “Solubility (film-forming method) Methanol” value in data set [1] was “X-Δ”. For the same compound, the “Solubility (dissolution method) Toluene” value in data set [2] is “◯◯ (Become uniform and transparent at a compound concentration of 20% or more)”.
Turning to `C=CCOCC(=C)C(=O)[O-].C=CCOCC(=C)C(=O)[O-].C=CCOCC(=C)C(=O)[O-].[Eu+3]` [Eu(AMA)3], in data set [2], the “Solubility (dissolution method) THF” value is “◯◯ (Become uniform and transparent at a compound concentration of 20% or more)”; the “Solubility (dissolution method) Toluene” value was “◯ (Become uniform and transparent at a compound concentration of 10%)”.
As to `C=C(C)C(=O)[O-].C=CCOCC(=C)C(=O)[O-].[CH3][Sn+2][CH3]` [(CH3)2Sn(AMA)1(MAA)1], the “Solubility (dissolution method) Toluene” value in data set [2] is “◯◯ (Become uniform and transparent at a compound concentration of 20% or more)”.
